Patent US12011560B2, “Drug delivery methods and systems” (Morningside Venture Investments Limited, priority 2015, dated 2024)
Where two headings read alike, the source gives them in different places.

Columns and labels:
[1] = Method: FIGS. 30-32 illustrate different transdermal membrane materials being tested with different solvents and solvent compositions. Solutions of water and different alcohols, including isopropanol, ethanol, and methanol were tested. The water to alcohol content was varied between 0/100 and 100/0 (by v/v) and tested with different membrane materials. For the tests 1.6 mL of solution was injected into the area between the transdermal membrane and the vapor permeable membrane. […] The membranes were observed approximately 90 seconds after providing the solvent solution to the space between the transdermal membrane and the vapor permeable membrane. […] Three different transdermal membrane materials were tested including Celgard® 2400 (FIG. 30), Celgard® 2500 (FIG. 31), and Celgard® 3501 (FIG. 32). Celgard® 2400 has an average pore diameter of about 0.041 μm and a porosity of 41%. Celgard® 2500 has an average pore diameter of about 0.064 μm and a porosity of 55%. Celgard® 3501 has an average pore diameter of about 0.064 μm and a porosity of 55%.
[2] = Wetting and permeation of solvent solutions across the transdermal membrane (FIG. 31); assay type: physicochemical; details: Celgard® 2500; 1.6 mL of solution injected between transdermal membrane and vapor permeable membrane; observed approximately 90 seconds after; v/v

| permeation of the solvent solution across the membrane [2] | Structure (SMILES) | permeation of the solvent solution across the membrane [1] |
| --- | --- | --- |
| Some permeation | CO [100% methanol, methanol] | Some permeation |
| – | O [100% water, water] | no permeation |
